Measurements: patent publication US20240042046A1, “METHODS AND COMPOUNDS FOR MODULATING HUNTINGTON'S DISEASE” (Design Therapeutics, Inc., priority 2022, published 2024)

What was measured:
[1] = test system: human HTT mRNA, SNP rs362331 C allele, GM09197 fibroblasts; experiment: Screening of HD molecules in GM09197 fibroblasts, allele-specific HTT mRNA by RT-PCR, C allele; format: cell-based; conditions: for GM 09197 E min 48 Hr C Allele (%): Emin = lowest % HTT observed within compound concentration 0.5 nM to 1000 nM
Description: (§1) Molecular Biology Toolkit: • qPCR primer probe sets: • RNA input normalization was assessed utilizing human glyceraldehyde 3-phosphate dehydrogenase (hGAPDH) TaqMan assay (ThermoFisher cat #4351370) or Human Cyclophillin ([…]) TaqMan assay (ThermoFisher cat #4351372) • Total HTT detection was assessed utilizing human Htt TaqMan assay (ThermoFisher cat #4331182) • Allele-specific detection of human HTT expression in HD cells containing the SNP rs362331C/T (Exon 50): for each assay, allele-specific probes to detect the SNP variant contained locked nucleic acid bases to improve allele discrimination, as compared to unmodified DNA probes.
(§2) • qPCR was performed using Agpath ID one-step reverse transcriptase polymerase chain reaction (RT-PCR) reagent
(§3) Screening of HD molecules methods: GM09197 and/or GM04022 fibroblasts were cultured in T175 flasks incubated at 37° C. and 5% CO2. Once confluency was reached, the media was removed, the cells were washed with 1×PBS, and cells were dissociated using TrypLE™ Express Enzyme. Media was added to the enzyme and collected into a 15-mL conical tube and centrifuged at 500×g for 5 minutes to pellet the cells. Media and enzyme were aspirated using a serological pipette. Cells were resuspended in fresh media and counted using a Countess 3 Automated Cell Counter. Cells were plated at a density of 15,000 cells/well in a tissue culture-treated polystyrene 96-well dish and incubated at 37° C. and 5% CO2 overnight. The next day, media was removed using an 8-channel aspirator. 200 μL media/well are added back into the plate. The molecules are formulated to 1 mM and are dispensed using a Multidrop™ Pico 8 Digital Dispenser. After a 48-hour incubation with compounds, media was removed from plates, cells were washed with 1×PBS, and cells were lysed in 40 μL per well guanidinium thiocyanate buffer. RNA was isolated and purified in […] glass fiber column plates using chaotropic salts. Human mtHTT, wtHTT, and GAPDH mRNA were measured via RT-PCR using the ThermoFisher QuantStudio™ 7 Flex System in 384-well format. Results of HTT levels were normalized to GAPDH mRNA levels. Normalized HTT mRNA levels were expressed relative to vehicle-treated samples to assess fold change after molecule treatment.
(§4) Emin for each compound is the lowest % HTT concentration observed within a compound concentration of 0.5 nM to 1000 nM.

[2] = test system: human HTT mRNA, SNP rs362331 T allele, GM09197 fibroblasts; experiment: Screening of HD molecules in GM09197 fibroblasts, allele-specific HTT mRNA by RT-PCR, T allele; format: cell-based; conditions: for Gm09197 Emin 48 hr T Allele (%): Emin = lowest % HTT observed within compound concentration 0.5 nM to 1000 nM; for IC50: Homo sapiens, Fibroblast, 48-hour incubation, T allele HTT mRNA normalized to GAPDH, relative to vehicle
Description: as §1, §2, §3, §4

Compound: CC(=O)N1c2ccc(-c3ccn(CCOCCOCCOCCOCCOCCOCCOCCOCCOCCOCCOCCOCCOCCOCCOCCNC(=O)CCNC(=O)c4nc(NC(=O)c5cc(NC(=O)CCNC(=O)c6nc(NC(=O)CCCNC(=O)c7cc(NC(=O)c8nc(NC(=O)CCNC(=O)c9cc(NC(=O)c%10nccn%10C)cn9C)cn8C)cn7C)cn6C)cn5C)cn4C)n3)cc2[C@H](Nc2ccc(C#N)cc2)C[C@@H]1C [Compound A-56]
- GM 09197 E min 48 Hr C Allele (%) [1]: C (C<80%)
- Gm09197 Emin 48 hr T Allele (%) [2]: C (C<80%)

Compound: CCS(=O)(=O)Nc1ccc(Oc2ccc(F)cc2F)c(-c2cn(C)c(=O)c3[nH]c(C(=O)Nc4ccc(OCCOCCOCCOCCOCCOCCOCCOCCOCCOCCOCCOCCOCCOCCOCCOCCNC(=O)CCNC(=O)c5nc(NC(=O)c6cc(NC(=O)CCNC(=O)c7nc(NC(=O)NCCNC(=O)c8cc(NC(=O)c9nc(NC(=O)CCNC(=O)c%10cc(NC(=O)c%11nccn%11C)cn%10C)cn9C)cn8C)cn7C)cn6C)cn5C)cc4)cc23)c1 [Compound A-74]
- GM 09197 E min 48 Hr C Allele (%) [1]: B (B is 90% to 80%)
- Gm09197 Emin 48 hr T Allele (%) [2]: A (A>90%)

Compound: Cc1sc2c(c1C)C(c1ccc(Cl)cc1)=N[C@@H](CC(=O)Nc1ccc(OCCOCCOCCOCCOCCOCCOCCOCCOCCOCCOCCOCCOCCOCCOCCOCCNC(=O)c3cc(NC(=O)c4nc(NC(=O)c5cc(NC(=O)[C@@H](N)CCNC(=O)c6nc(NC(=O)CCNC(=O)c7cc(NC(=O)c8nccn8C)cn7C)cn6C)cn5C)cn4C)cn3C)cc1)c1nnc(C)n1-2 [Compound A-38]
- GM 09197 E min 48 Hr C Allele (%) [1]: A (A>90%)
- Gm09197 Emin 48 hr T Allele (%) [2]: A (A>90%)

Compound: Cc1sc2c(c1C)C(c1ccc(Cl)cc1)=N[C@@H](CC(=O)Nc1ccc(OCCOCCOCCOCCOCCOCCOCCOCCOCCOCCOCCOCCOCCOCCOCCOCCNC(=O)CCNC(=O)c3nc(NC(=O)c4cc(NC(=O)CCNC(=O)c5nc(NC(=O)OCCNC(=O)c6cc(NC(=O)c7nc(NC(=O)CCNC(=O)c8cc(NC(=O)c9nccn9C)cn8C)cn7C)cn6C)cn5C)cn4C)cn3C)cc1)c1nnc(C)n1-2 [Compound A-73]
- GM 09197 E min 48 Hr C Allele (%) [1]: A (A>90%)
- Gm09197 Emin 48 hr T Allele (%) [2]: A (A>90%)

Compound: Cc1sc2c(c1C)C(c1ccc(Cl)cc1)=N[C@H](CC(=O)Nc1ccc(OCCOCCOCCOCCOCCOCCOCCOCCOCCOCCOCCOCCOCCOCCOCCOCCNC(=O)CCNC(=O)c3nc(NC(=O)c4cc(NC(=O)CCNC(=O)c5nc(NC(=O)CCCNC(=O)c6cc(NC(=O)c7nc(NC(=O)CCNC(=O)c8cc(NC(=O)c9nccn9C)cn8C)cn7C)cn6C)cn5C)cn4C)cn3C)cc1)c1nnc(C)n1-2 [Compound A-45]
- GM 09197 E min 48 Hr C Allele (%) [1]: C (C<80%)
- Gm09197 Emin 48 hr T Allele (%) [2]: C (C<80%)

Compound: CC(=O)Nc1c(F)cc(C(=O)N[C@H]2CC[C@H](O)CC2)cc1O[C@@H](C)c1cccc(C(=O)NCCOCCOCCOCCOCCOCCOCCOCCOCCOCCOCCOCCOCCOCCOCCOCCNC(=O)CCNC(=O)c2nc(NC(=O)c3cc(NC(=O)CCNC(=O)c4nc(NC(=O)CCCNC(=O)c5cc(NC(=O)c6nc(NC(=O)CCNC(=O)c7cc(NC(=O)c8nccn8C)cn7C)cn6C)cn5C)cn4C)cn3C)cn2C)c1 [Compound A-32]
- GM 09197 E min 48 Hr C Allele (%) [1]: B (B is 90% to 80%)
- Gm09197 Emin 48 hr T Allele (%) [2]: B (B is 90% to 80%)

Compound: Cc1cc(F)cc(C)c1Oc1ccc(C(C)(C)O)cc1-c1cn(C)c(=O)c2[nH]c(C(=O)Nc3ccc(OCCOCCOCCOCCOCCOCCOCCOCCOCCNC(=O)CCNC(=O)c4nc(NC(=O)c5cc(NC(=O)CCNC(=O)c6nc(NC(=O)CCCNC(=O)c7cc(NC(=O)c8nc(NC(=O)CCNC(=O)c9cc(NC(=O)c%10nccn%10C)cn9C)cn8C)cn7C)cn6C)cn5C)cn4C)cc3)cc12 [Compound A-7]
- GM 09197 E min 48 Hr C Allele (%) [1]: A (A>90%)
- Gm09197 Emin 48 hr T Allele (%) [2]: A (A>90%)
- IC50 [2]: > 1 µM

Compound: CC(=O)Nc1c(F)cc(C(=O)NC2CCC(O)CC2)cc1O[C@@H](C)c1cccc(OCCOCCOCCOCCOCCOCCOCCOCCOCCOCCOCCOCCOCCOCCOCCOCCNC(=O)CCNC(=O)c2nc(NC(=O)c3cc(NC(=O)CCNC(=O)c4nc(NC(=O)CCCNC(=O)c5cc(NC(=O)c6nc(NC(=O)CCNC(=O)c7cc(NC(=O)c8nccn8C)cn7C)cn6C)cn5C)cn4C)cn3C)cn2C)c1 (stereo partly shown) [Compound A-31]
- GM 09197 E min 48 Hr C Allele (%) [1]: B (B is 90% to 80%)
- Gm09197 Emin 48 hr T Allele (%) [2]: B (B is 90% to 80%)

Compound: Cc1sc2c(c1C)C(c1ccc(Cl)cc1)=N[C@@H](CC(=O)Nc1ccc(OCCOCCOCCOCCOCCOCCOCCOCCOCCNC(=O)CCNC(=O)c3nc(NC(=O)c4cc(NC(=O)CCNC(=O)c5nc(NC(=O)CCCNC(=O)c6cc(NC(=O)c7nc(NC(=O)CCNC(=O)c8cc(NC(=O)c9nccn9C)cn8C)cn7C)cn6C)cn5C)cn4C)cn3C)cc1)c1nnc(C)n1-2 [Compound A-1]
- GM 09197 E min 48 Hr C Allele (%) [1]: A (A>90%)
- Gm09197 Emin 48 hr T Allele (%) [2]: C (C<80%)
- IC50 [2]: 0.114 µM

Compound: Cc1noc(C)c1-c1ccc2c(c1)nc(CCc1ccc(OCCOCCOCCOCCOCCNC(=O)CCNC(=O)c3nc(NC(=O)c4cc(NC(=O)CCNC(=O)c5nc(NC(=O)CCCNC(=O)c6cc(NC(=O)c7nc(NC(=O)CCNC(=O)c8cc(NC(=O)c9nccn9C)cn8C)cn7C)cn6C)cn5C)cn4C)cn3C)c(Cl)c1)n2C[C@H](C)N1CCOCC1 [Compound A-52]
- GM 09197 E min 48 Hr C Allele (%) [1]: C (C<80%)
- IC50 ([1]; Homo sapiens, Fibroblast, 48-hour incubation, C allele HTT mRNA normalized to GAPDH, relative to vehicle): > 1 µM
- Gm09197 Emin 48 hr T Allele (%) [2]: B (B is 90% to 80%)
- IC50 [2]: > 1 µM

Compound: Cn1cc(NC(=O)c2nc(NC(=O)CCNC(=O)c3cc(NC(=O)c4nccn4C)cn3C)cn2C)cc1C(=O)NCCCC(=O)Nc1cn(C)c(C(=O)NCCC(=O)Nc2cc(C(=O)Nc3cn(C)c(C(=O)NCCC(=O)NCCOCCOCCOCCOCCOCCOCCOCCOCCN4C[C@H](Nc5cnn(C)c(=O)c5Br)C[C@H](c5ccccc5)C4)n3)n(C)c2)n1 [Compound A-48]
- GM 09197 E min 48 Hr C Allele (%) [1]: A (A>90%)
- Gm09197 Emin 48 hr T Allele (%) [2]: A (A>90%)

Compound: CC(=O)N1c2ccc(-c3ccn(-c4ccc(OCCOCCOCCOCCOCCOCCOCCOCCOCCNC(=O)CCNC(=O)c5nc(NC(=O)c6cc(NC(=O)CCNC(=O)c7nc(NC(=O)CCCNC(=O)c8cc(NC(=O)c9nc(NC(=O)CCNC(=O)c%10cc(NC(=O)c%11nccn%11C)cn%10C)cn9C)cn8C)cn7C)cn6C)cn5C)cc4)n3)cc2[C@H](Nc2ccc(C#N)cc2)C[C@@H]1C [Compound A-59]
- GM 09197 E min 48 Hr C Allele (%) [1]: B (B is 90% to 80%)
- Gm09197 Emin 48 hr T Allele (%) [2]: B (B is 90% to 80%)

Compound: Cc1sc2c(c1C)C(c1ccc(Cl)cc1)=N[C@@H](CC(=O)Nc1ccc(OCCOCCOCCOCCOCCOCCOCCOCCOCCOCCOCCOCCOCCOCCOCCOCCNC(=O)CCNC(=O)c3nc(NC(=O)c4cc(NC(=O)CCNC(=O)c5nc(NC(=O)NCCNC(=O)c6cc(NC(=O)c7nc(NC(=O)CCNC(=O)c8cc(NC(=O)c9nccn9C)cn8C)cn7C)cn6C)cn5C)cn4C)cn3C)cc1)c1nnc(C)n1-2 [Compound A-75]
- GM 09197 E min 48 Hr C Allele (%) [1]: A (A>90%)
- Gm09197 Emin 48 hr T Allele (%) [2]: A (A>90%)

Compound: CC(=O)N1c2ccc(-c3ccn(-c4ccc(OCCOCCOCCOCCOCCOCCOCCOCCOCCOCCOCCOCCOCCOCCOCCOCCNC(=O)CCNC(=O)c5nc(NC(=O)c6cc(NC(=O)CCNC(=O)c7nc(NC(=O)CCCNC(=O)c8cc(NC(=O)c9nc(NC(=O)CCNC(=O)c%10cc(NC(=O)c%11nccn%11C)cn%10C)cn9C)cn8C)cn7C)cn6C)cn5C)cc4)n3)cc2[C@H](Nc2ccc(C#N)cc2)C[C@@H]1C [Compound A-58]
- GM 09197 E min 48 Hr C Allele (%) [1]: B (B is 90% to 80%)
- Gm09197 Emin 48 hr T Allele (%) [2]: B (B is 90% to 80%)

Compound: CCS(=O)(=O)Nc1ccc(Oc2ccc(F)cc2F)c(-c2cn(C)c(=O)c3[nH]c(C(=O)Nc4ccc(OCCOCCOCCOCCOCCOCCOCCOCCOCCNC(=O)c5cc(NC(=O)c6nc(NC(=O)[C@H](N)CCNC(=O)c7cc(NC(=O)c8nc(NC(=O)CCNC(=O)c9cc(NC(=O)c%10nccn%10C)cn9C)cn8C)cn7C)cn6C)cn5C)cc4)cc23)c1 [Compound A-21]
- GM 09197 E min 48 Hr C Allele (%) [1]: A (A>90%)
- Gm09197 Emin 48 hr T Allele (%) [2]: A (A>90%)
